# Test results as given in the CheMixHub viscosity set.
# Where “and” joins values, the source holds several entries; their conditions need not be identical. Equal values may be shown once. ± gives the uncertainty stated by the source.
structure (smiles),measurement,setting,value
CC(=O)[O-].CCCC[N+](CC)(CC)CC,viscosity,"298.2 K, 101 kPa",439 ± 23 mPa·s
same,viscosity,"313.2 K, 101 kPa",306.7 ± 14 mPa·s
CC(C)OCCO,viscosity,"298.15 K, 101.33 kPa",2.106 ± 0.026 mPa·s
same,viscosity,"308.15 K, 101.33 kPa",1.649 ± 0.021 mPa·s
same,viscosity,"318.15 K, 101.33 kPa",1.315 ± 0.017 mPa·s
CCCCCCCCN(CCCCCCCC)CCCCCCCC,viscosity,"298.15 K, 101.33 kPa",8.325 ± 0.24 mPa·s and 8.325 ± 0.23 mPa·s
same,viscosity,"303.15 K, 101 kPa",6.95 ± 0.14 mPa·s
CCCC[n+]1ccn(C)c1C.F[B-](F)(F)F,viscosity,"298.15 K, 101 kPa",573 ± 51 mPa·s
CCOC(=O)CCl,viscosity,"303.15 K, 101.3 kPa",1.013 ± 0.013 mPa·s and 1.013 ± 0.009 mPa·s
same,viscosity,"303.15 K, 101.33 kPa",1.007 ± 0.02 mPa·s and 1.007 ± 0.025 mPa·s
same,viscosity,"308.15 K, 101.3 kPa",0.93 ± 0.012 mPa·s and 0.93 ± 0.009 mPa·s
same,viscosity,"308.15 K, 101.33 kPa",0.933 ± 0.017 mPa·s and 0.933 ± 0.022 mPa·s
CCOCCOCCOCC,viscosity,"298.15 K, 101 kPa",1.268 ± 0.011 mPa·s
same,viscosity,"298.15 K, 101.33 kPa",1.268 ± 0.016 mPa·s
same,viscosity,"308.15 K, 101.33 kPa",1.048 ± 0.014 mPa·s
same,viscosity,"318.15 K, 101.33 kPa",0.881 ± 0.012 mPa·s
CNC=O,viscosity,"298.15 K, 101 kPa",1.746 ± 0.028 mPa·s
same,viscosity,"298.15 K, 101.3 kPa",1.695 ± 0.024 mPa·s
same,viscosity,"303 K, 101 kPa",1.475 ± 0.014 mPa·s
same,viscosity,"303.15 K, 101 kPa",1.585 ± 0.074 mPa·s and 1.597 ± 0.015 mPa·s and 1.58 ± 0.025 mPa·s
same,viscosity,"303.15 K, 101.33 kPa",1.586 ± 0.015 mPa·s
same,viscosity,"308.15 K, 101 kPa",1.462 ± 0.069 mPa·s and 1.473 ± 0.014 mPa·s and 1.434 ± 0.023 mPa·s
same,viscosity,"308.15 K, 101.33 kPa",1.463 ± 0.013 mPa·s
same,viscosity,"313.15 K, 101 kPa",1.352 ± 0.065 mPa·s and 1.361 ± 0.013 mPa·s and 1.306 ± 0.021 mPa·s
same,viscosity,"313.15 K, 101.33 kPa",1.352 ± 0.013 mPa·s
same,viscosity,"318.15 K, 101 kPa",1.255 ± 0.06 mPa·s and 1.263 ± 0.012 mPa·s and 1.191 ± 0.02 mPa·s
same,viscosity,"318.15 K, 101.33 kPa",1.256 ± 0.012 mPa·s
same,viscosity,"323.15 K, 101 kPa",1.175 ± 0.011 mPa·s
same,viscosity,"323.15 K, 101.33 kPa",1.167 ± 0.011 mPa·s
C[N+](C)(C)CCO.O=C([O-])c1ccccn1,viscosity,"300 K, 100 kPa",558.5 ± 54 mPa·s
